Laboratory results: patent publication US20020095001A1, “Methods and compositions for topical treatment of damaged tissue using reactive oxygen metabolite production or release inhibitors” (priority 1999, published 2002)

What was measured:
[1] = test system: herpes labialis; conditions: 0.07% by weight lipstick, three times a day for five days
Excerpt: The treatment consists of topical application three times a day for a period of five days.

[2] = test system: herpes genitalis; conditions: 0.07% by weight foam (vaginal) and cream (external), three times a day for five days
Method: Using an applicator, the foam is injected into the vaginal space to treat herpetic lesions therein. The cream is applied topically to external lesions. The cream and foam are applied three times a day for a period of five days.

[3] = test system: thermal burn injuries; experiment: Example 15: thermal burn injuries treated with a water-based gel; type: in vivo, human; conditions: water-based gel 0.007% by weight; every 10 minutes first hour, every 30 minutes next three hours, then as needed
Method: The compositions of the present invention are administered topically to a subject presenting thermal burn injuries. A water-based gel preparation containing of 0.007% by weight of the formulation of serotonin was administered to the subject's burn injuries. The treatment consisted of topical application of the gel to the burn site every 10 minutes for the first hour, then every 30 minutes for the next three hours. Topical applications thereafter are applied as needed by the subject in response to pain.

[4] = biological target: T1, NADPH oxidase (Homo sapiens, UniProt P04839); conditions: membrane bound oxidase of phagocytes, substrate preference; generally accepted; cited from earlier work
T1 construct: host or cells: phagocytes / neutrophils (background description)

[5] = test system: photodermatitis (second degree sunburn); conditions: aloe vera based gel such as SOOTH-A-CAINE containing 0.006% by weight
Excerpt: The ROM production and release inhibitory compound serotonin is used in a gel to treat a subject presenting photodermatitis (second degree sunburn) and attendant blister formation. The subject has blister formation as well as deep reddening of the epidermis on the back.

[6] = test system: keratoconjunctivitis or a corneal herpes infection; conditions: ophthalmic solution 0.09% by weight with ZOVIRAX every three hours, plus solution without ZOVIRAX hourly
Method: A subject presenting keratoconjunctivitis or a corneal herpes infection is treated with the compositions of the present invention using an ophthalmic solution of histamine dihydrochloride at 0.09% by weight of formulation. Commercially available ophthalmic solutions are well known in the art. Additionally, the ophthalmic solution contains ZOVIRAX in an effective concentration. Application of the solution to the eye occurs every three hours. A solution containing only the ROM production and release inhibiting compound is given hourly to ease the discomfort of the subject.

[7] = test system: incision of the skin; conditions: formulation 0.0045% by weight with vitamin A 2000 IU, vitamin E 5000 IU and a topical antibiotic, twice a day
Method: The compositions of the present invention are administered topically to a subject presenting an incision of the skin. A formulation containing histamine dihydrochloride in a concentration of 0.0045% by weight of the formulation, vitamin A at 2000 IU, vitamin E at 5000 IU, and a topical antibiotic is applied to the wound following proper wound cleansing. Subsequent administration of the formulation occurs twice a day and with each change of wound dressing.

[8] = test system: herpes labialis; conditions: cream 0.08% by weight five times a day together with ZOVIRAX; compared to ZOVIRAX alone
Method: The ability of the ROM production and release inhibition compounds of the present invention to increase the effectiveness of 9-(2-Hydroxyethoxymethyl)guanine, ZOVIRAX, (GlaxoWellcome) is evaluated in two groups of 10 subjects each. No subjects are suffering from active lesions at the initiation of the study. Group I subjects receive ZOVIRAX according to the dosage given by the manufacturer. […] Application of the cream continues during vesicle formation and until the vesicles have completely healed. Subjects in both groups are instructed to topically apply the product five times a day at the lesion site.
Subjects participating in the study are instructed to monitor the size and duration of the lesions during the herpetic episode.

[9] = test system: chemical burn injuries; conditions: water-based gel 0.007% by weight; every 10 minutes first hour, every 30 minutes next three hours, then as needed
Method: The compositions of the present invention are administered topically to a subject presenting chemical burn injuries. A water-based gel preparation containing of 0.007% by weight of the formulation of histamine dihydrochloride was administered to the subject's burn injuries. The treatment consisted of topical application of the gel to the burn site every 10 minutes for the first hour, then every 30 minutes for the next three hours. Topical applications thereafter are applied as needed by the subject in response to pain.

[10] = test system: herpes zoster or shingles lesions; conditions: ointment approx. 0.004% by weight four times a day plus subcutaneous histamine 10 μg/kg once per week
Method: A subject presenting herpes zoster or shingles lesions is treated with the compounds of the present invention in the form of an ointment. […] The ointment is administered topically to shingles lesions four times a day until the lesions completely heal. A subcutaneous injection of histamine at a concentration of 10 μg/kg of the subject is also administered. The injection is given once per week.

[11] = test system: eczema; conditions: soap approx. 0.1% by weight once daily and lotion approx. 0.0055% by weight up to five times a day
Method: A subject presenting eczema is treated with a lotion and soap containing the ROM production and release inhibitory compound histamine dihydrochloride. The soap contains histamine in a concentration of approximately 0.1% by weight while the lotion contains histamine in a concentration of approximately 0.0055% by weight. The subject bathes with the soap once daily. The affected area is lathered well with the soap, rinsed, and the procedure is repeated. Following the bath, the lotion is applied up to five times throughout the day to the affected area.

[12] = test system: varicella-zoster virus (chicken pox) infection; conditions: child; paste 0.02% by weight five times per day and soap 0.1% by weight during bathing
Method: A child presenting the symptoms of chicken pox is treated with the compounds of the present invention. In this example, two products are used to treat the subject. […] The paste is applied five times per day until the vesicles have completely healed.

[13] = test system: herpes labialis; conditions: cream with 0.08% by weight, topical four to five times a day; compared to control cream group
Excerpt: Treatment of the subjects consists of the topical application of the medication four to five times a day at the lesion site.

[14] = test system: periodontal disease; conditions: mouthwash and toothpaste, each 0.008% by weight, three times daily
Method: A subject presenting periodontal disease is treated with a mouthwash and toothpaste, each containing 0.008% by weight of histamine dihydrochloride. The subject brushes their teeth three times daily with the toothpaste for ten minutes. Following this cleansing, the subject washes their mouth with the mouthwash, rinses with water, and repeats. The treatment continues until the health of the periodontal tissue improves.

[15] = test system: psoriasis of the scalp
Method: A subject suffering from psoriasis of the scalp is treated with a shampoo containing approximately 0.008% by weight of histamine dihydrochloride. The subject undergoes UVB treatment in accordance with a protocol well known to those of ordinary skill in the art. In addition, the subject washes their hair once per day with the shampoo containing the ROM production and release inhibitory compound histamine.

[16] = test system: laser facial resurfacing treated skin; conditions: bandage with sterile solution 0.008% by weight five times daily, plus sunscreen 0.008% by weight
Excerpt: The bandage containing the sterile solution of histamine dihydrochloride is applied five times daily to the treated area. A sunscreen containing 0.008% by weight of histamine dihydrochloride is also applied before the subject is to be exposed to sunlight.

[17] = test system: chemical peel treated skin; conditions: solution 0.008% by weight, soaking five times daily after chemical peel
Excerpt: The solution is applied by soaking the treated five times daily to the treated area.

[18] = test system: pharyngotosillitis, a herpetic infection of the pharyngeal region; experiment: Example 5: pharyngotonsillitis treated with a mouthwash; type: in vivo, human; conditions: mouthwash 0.05% by weight, five applications per day for seven days
Method: A subject suffering from pharyngotosillitis, a herpetic infection of the pharyngeal region is treated with a mouthwash containing the ROM inhibitory compound NADPH oxidase inhibitor […] in a concentration of 0.05% by weight of formulation. The treatment consists of five mouthwash applications per day for a period of seven days. The administration of […] was effective in treating the pharyngotosillitis of the subject.

histamine diphosphate
healing time of the ruptured herpetic vesicles [1]: reduced the healing time
healing time of the ruptured herpetic vesicles [2]: reduced the healing time

NCCc1c[nH]c2ccc(O)cc12 [serotonin]
discomfort of the subject [3]: reduces the discomfort
healing of the burn injuries [3]: promotes healing

NC(=O)C1=CN([C@@H]2O[C@H](COP(=O)(O)OP(=O)(O)OC[C@H]3O[C@@H](n4cnc5c(N)ncnc54)[C@H](O)[C@@H]3O)[C@@H](O)[C@H]2O)C=CC1 [NADH]
Km [4]: 450 µM

NCCc1c[nH]cn1 [histamine]
blistering and amount of skin sloughed off as a result of the irradiation [5]: decrease in blistering and the amount of skin sloughed off
discomfort in the subject [5]: reduction of discomfort

Cl.Cl.NCCc1c[nH]cn1 [histamine dihydrochloride]
damage caused by the viral outbreak [6]: reduces
discomfort of the patient [6]: reduces the discomfort of the patient
time period of viral activity [6]: reduces the time period of viral activity
healing of the incision [7]: promotes healing of the incision
scar formation [7]: reduces scar formation
size of the herpetic lesions forming during the outbreak period [8]: decrease in the size of the herpetic lesions
discomfort of the subject [9]: reduces the discomfort
healing of the burn injuries [9]: promotes healing
time required for the healing of the herpetic lesions [10]: reduces the time required for the healing
general condition of the skin in the affected area [11]: increase in the general condition of the skin
symptoms of eczema [11]: decrease in the symptoms
healing of vesicles [12]: causes the vesicles to heal rapidly
level of discomfort experienced by the subject [12]: decreases the level of discomfort
healing time of herpetic lesions [13]: decrease in healing time
rate of healing [14]: rate of healing is increased
rate of reduction in symptoms ([15]; shampoo approx. 0.008% by weight once per day with UVB, compared to UVB treatment alone): reduction in symptoms at a greater rate
irritation of the affected area ([15]; shampoo approx. 0.008% by weight once per day, with UVB treatment): reduces the irritation of the affected area
rate of healing [16]: rate of healing is increased
rate of healing [17]: rate of healing is increased

NC(=O)C1=CN([C@@H]2O[C@H](COP(=O)(O)OP(=O)(O)OC[C@H]3O[C@@H](n4cnc5c(N)ncnc54)[C@H](OP(=O)(O)O)[C@@H]3O)[C@@H](O)[C@H]2O)C=CC1 [NADPH]
Km [4]: 45 µM

c1ccc2c(c1)[I+]c1ccccc1-2 [diphenlyeneiodonium]
effectiveness in treating the pharyngotosillitis [18]: effective
